One may read the amount remaining as what is left of the initial amount, in per cent. A lower amount remaining goes with a greater loss. As usually defined, the IC50 is the concentration needed to halve the response being measured.

The source of these data is PMC2818674 (Bioorganic & medicinal chemistry, 2009).

Series [1] is described as follows: Plasma stability assay. Format: in vitro ADME, rat. The conditions noted are these: for remaining at 1 h, 1 μM: rat, fresh rat plasma; for plasma stability: after 1 h of incubation in rat plasma.
The nature of series [2]: PAMPA permeability assay. The class given is in vitro ADME. The conditions noted are these: pH 7.4.
The test system of series [3] is Akt. Nature of the series: Selectivity profile: Akt. Format: biochemical. As to conditions: for IC50: read-out: Akt, IC50, selectivity profile.

Where only a bound is given, the exact number is not on record here.

On to `O=[N+]([O-])c1cnc(Sc2nnc(O)n2-c2ccc3c(c2)OCCO3)s1` [BI-78D3, reference compound], for which the fraction remaining at 1 h, 1 μM in series [1] was 42%. Further, the “Cell permeability, PAMPA % Flux” value in series [2] was 30%.
`CCCNc1nnc(Sc2ncc([N+](=O)[O-])s2)s1` [BI-90H6, 5-(5-nitrothiazol-2-ylthio)-N-propyl-1,3,4-thiadiazol-2-amine]: the IC50 in series [3] is greater than 100 µM. Moreover, in series [1], the “plasma stability” value is recorded as “degraded rapidly” and the fraction remaining at 1 h, 1 μM came to 35%. Further, the “Cell permeability, PAMPA % Flux” value in series [2] is 49.8%.
As to `COCCNc1nnc(Sc2ncc([N+](=O)[O-])s2)s1` [BI-90H9, N-(2-methoxyethyl)-5-(5-nitrothiazol-2-ylthio)-1,3,4-thiadiazol-2-amine], in series [3], the “activity against the kinase Akt” value is “practically inactive” and the IC50 is greater than 100 µM. In series [1], this molecule displayed an amount remaining at 1 h, 1 μM of 68%. The “Cell permeability, PAMPA % Flux” value in series [2] turned out to be 76.3%.
`COc1ccc(CCNc2nnc(Sc3ncc([N+](=O)[O-])s3)s2)cc1OC` [BI-90H10, N-(3,4-dimethoxyphenethyl)-5-(5-nitrothiazol-2-ylthio)-1,3,4-thiadiazol-2-amine]: the IC50 in series [3] was greater than 100 µM. Besides, in series [1], the “plasma stability” value was “degraded rapidly” and the share remaining at 1 h, 1 μM is 0%. Further, in series [2], the “Cell permeability, PAMPA % Flux” value is 5.5%.
For the molecule `CCC(C)Nc1nnc(Sc2ncc([N+](=O)[O-])s2)s1` (stereo not drawn) [BI-98A10, N-sec-butyl-5-(5-nitrothiazol-2-ylthio)-1,3,4-thiadiazol-2-amine], the 50% inhibitory concentration (IC50) in series [3] was greater than 100 µM.
